Experiments:
[1] = molecular target: T1, Human recombinant His-tagged PFKFB3 (Homo sapiens, UniProt Q16875); experiment: PFKFB3 IC50 determination assay (in vitro kinase assay, modified ADP-Glo system); format: biochemical; settings: ADP-Glo; ATP 20 μM (Km), fructose-6-phosphate 2 μM (Km), 25 nM PFKFB3, 2 h, rt; read-out: PFKFB3 IC50
T1 construct: His; made in house

[2] = molecular target: T2, BRK (PTK6 protein tyrosine kinase 6) (Homo sapiens, UniProt Q13882); experiment: BRK (PTK6 protein tyrosine kinase 6) IC50 determination assay (in vitro kinase assay, ADP-Glo Max); format: biochemical; settings: ATP 1600 uM (Km), Poly(Glu, Tyr) 160 uM, 75 nM PTK6, 45 min, RT
T2 construct: purchased Carna Bioscience 08-165
T2 sequence (Q13882 whole entry): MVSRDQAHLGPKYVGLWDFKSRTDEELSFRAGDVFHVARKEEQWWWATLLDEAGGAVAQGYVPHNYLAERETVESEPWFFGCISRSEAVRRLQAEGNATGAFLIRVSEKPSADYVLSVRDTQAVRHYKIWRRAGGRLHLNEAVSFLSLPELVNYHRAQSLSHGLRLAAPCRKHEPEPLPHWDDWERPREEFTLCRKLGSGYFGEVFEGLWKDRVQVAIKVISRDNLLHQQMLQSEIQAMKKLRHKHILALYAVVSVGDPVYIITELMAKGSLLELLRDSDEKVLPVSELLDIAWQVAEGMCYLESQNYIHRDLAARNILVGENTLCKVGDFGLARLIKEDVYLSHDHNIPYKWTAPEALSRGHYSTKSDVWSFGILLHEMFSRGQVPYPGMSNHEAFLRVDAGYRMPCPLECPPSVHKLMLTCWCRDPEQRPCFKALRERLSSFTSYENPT
Method: BRK (PTK6 Protein Tyrosine Kinase 6) IC50 Determination Assay
In vitro kinase assay used to determine IC50 values for tested inhibitors is based on a modified ADP-Glo™ Max Assay system (Promega) and consists of two parts:
1. Kinase reaction—performed in optimized conditions. At this step BRK phosphorylates its substrate Poly(Glu, Tyr) sodium salt [Glu:Tyr (4:1)] using ATP as a source of phosphate to produce phosphorylated substrate and ADP. Reaction is performed at Km values for ATP and substrate using optimized buffer composition and time of the reaction. BRK (PTK6 protein tyrosine kinase 6) used in the experiments is commercially available (Carna Bioscience, cat. No. 08-165).
2. Detection of ADP as a product of the reaction using ADP-Glo™ system. This part is conducted by using the commercially available kit ADP-Glo™ Max Assay (Promega, cat. No. V7001) according to manufacturer's instruction. Reproducibility and reliability of this modification is confirmed in an optimization process.
Test compounds are dissolved in DMSO and then transferred to the V-bottom 96-well plate.
Two mixes are prepared on ice: Mix 1—containing appropriate kinase amount in 2× reaction buffer and Mix 2—containing concentrated substrate (Poly(Glu, Tyr) sodium salt) and ATP in MilliQ water. 15 μL per well of Mix 1 is transferred to assay wells of 96-well white plate. Next, 2 μl of 15× concentrated test compound in DMSO is added to Mix 1 for 20 min pre-incubation, followed by addition of Mix 2 (13 μl/well). Total reaction volume is 30 μL per well. Samples are tested in duplicates. Final concentration of DMSO in the reaction is 6.7%. Conditions needed for performing BRK in vitro kinase assay are given below:
This protocol is based on Technical Bulletin, ADP-Glo™ Kinase Assay (Promega) and is adapted to 96-well plate containing 30 μL reaction mixture. 30 μL of ADP-Glo™ Reagent is added to each well of 96-well plate containing 30 μL of reaction mixture. The plate is incubated for 90 minutes on a shaker at RT. 60 μL of ADP-Glo™ Max Detection Solution is added to each well of 96-well plate containing 60 μL of the solution (ratio of kinase reaction volume to ADP-Glo™ Reagent volume to Kinase Detection Solution volume is maintained at […]). Plate is incubated for 40 minutes on a shaker at RT, protected from light. Luminescence is measured in the plate reader Synergy 2 (BioTek). Luminescent readouts for compounds tested in 8 concentrations (routinely from 66.7 μM in 5-fold serial dilution step) in duplicates, as well as for high control (complete reaction mix w/DMSO vehicle control), are first normalized to no-substrate low control by its subtraction. In the next step, % of normalized positive control is calculated for each data point and plotted against test compound concentration:
% of control—percent of positive control normalized to no-substrate negative control Lumcpd—luminescence of test compound Lumneg—luminescence of no-substrate negative control Lumpos—luminescence of positive control
IC50 parameter is determined by the GraphPad Prism 6.0 software using 4-parameter model.

T1 sequence (Q16875 whole entry): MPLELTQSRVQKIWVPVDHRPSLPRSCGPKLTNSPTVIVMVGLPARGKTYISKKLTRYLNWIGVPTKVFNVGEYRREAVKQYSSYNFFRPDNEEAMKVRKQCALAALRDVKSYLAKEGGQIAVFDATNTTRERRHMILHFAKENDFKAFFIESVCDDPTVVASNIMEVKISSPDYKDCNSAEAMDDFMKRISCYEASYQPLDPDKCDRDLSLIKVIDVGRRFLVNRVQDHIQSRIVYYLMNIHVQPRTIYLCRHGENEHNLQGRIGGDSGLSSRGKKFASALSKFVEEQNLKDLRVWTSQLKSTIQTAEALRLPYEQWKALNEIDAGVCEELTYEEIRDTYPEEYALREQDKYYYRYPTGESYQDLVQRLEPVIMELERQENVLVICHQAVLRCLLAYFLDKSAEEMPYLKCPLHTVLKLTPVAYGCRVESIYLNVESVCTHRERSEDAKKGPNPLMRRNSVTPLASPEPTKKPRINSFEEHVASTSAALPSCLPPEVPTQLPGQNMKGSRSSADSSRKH

| Structure (SMILES) | IC50 [1] [µM] | IC50 [2] [µM] |
| --- | --- | --- |
| CC(=O)N1CCCC(C(Nc2cc(-c3ccc4ccn(C)c4c3)c3nccnc3c2)c2cccnc2)C1 (stereo not drawn) [Example 250] | 0.001 to 1 | 0.001 to 1 |
| Cn1ccc2ccc(-c3cc(NCc4cncc(N)c4)cc4nccnc34)cc21 [Example 100] | 1 to 10 | 0.001 to 1 |
| COc1cccc([C@@H](C)Nc2cc(-c3ccc4ccn(C)c4c3)c3nccnc3c2)c1 [compound 11, N-[(1R)-1-(3-methoxyphenyl)ethyl]-8-(1-methyl-1H-indol-6-yl)quinoxalin-6-amine] | 1 to 10 | 1 to 10 |
| COc1ccc(-c2cc(N[C@@H]3CCCc4ccccc43)cc3nccnc23)cc1[N+](=O)[O-] [compound 25, 8-(4-methoxy-3-nitrophenyl)-N-[(1R)-1,2,3,4-tetrahydronaphthalen-1-yl]quinoxalin-6-amine] | 1 to 10 | 10 to 100 |
| Cn1ccc2ccc(-c3cc(NCc4ccc(N)cc4)cc4nccnc34)cc21 [Example 75] | 10 to 100 | 1 to 10 |
| Cn1ccc2ccc(-c3cc(NCCc4cccnc4)cc4nccnc34)cc21 [compound 3, 8-(1-methyl-1H-indol-6-yl)-N-[2-(pyridin-3-yl)ethyl]quinoxalin-6-amine] | 1 to 10 | 0.001 to 1 |
| CC(Nc1cc(N2CC3CCCC3C2)c2nccnc2c1)c1cccnc1 (stereo not drawn) [Example 65] | 10 to 100 | 1 to 10 |
| COc1ccc(C(C)Nc2cc(-c3ccc4ccn(C)c4c3)c3nccnc3c2)cc1 (stereo not drawn) [compound 15, N-[1-(4-methoxyphenyl)ethyl]-8-(1-methyl-1H-indol-6-yl)quinoxalin-6-amine] | 1 to 10 | 1 to 10 |
| CC(Nc1cc(Cl)c2nccnc2c1)c1cccnc1 (stereo not drawn) [compound 26, 8-chloro-N-[1-(pyridin-3-yl)ethyl]quinoxalin-6-amine] | 10 to 100 | 1 to 10 |

The next lines start with the values.

| IC50 [1] [µM] | IC50 [2] [µM] | Structure (SMILES) |
| --- | --- | --- |
| 0.001 to 1 | 10 to 100 | Cn1ccc2ccc(-c3cc(NC(C)(C)c4cccnc4)cc4nccnc34)cc21 [Example 81] |
| 1 to 10 | 0.001 to 1 | COc1ncccc1CNc1cc(-c2ccc3ccn(C)c3c2)c2nccnc2c1 [Example 86] |
| 1 to 10 | 1 to 10 | Cn1ccc2ccc(-c3cc(NC4CCNCC4)cc4nccnc34)cc21 [Example 97] |
| 10 to 100 | 1 to 10 | CC(Nc1cc(-c2ccc3c(ccn3C)c2)c2nccnc2c1)c1cccnc1 (stereo not drawn) [Example 82] |
| 10 to 100 | 1 to 10 | CC(=O)N1CCc2ccc(-c3cc(NC(C)c4cccnc4)cc4nccnc34)cc21 (stereo not drawn) [Example 64] |
| 1 to 10 | 0.001 to 1 | CC(Nc1cc(-c2ccc3ccn(C)c3c2)c2nccnc2c1)c1cccc(S(N)(=O)=O)c1 (stereo not drawn) [Example 28] |

Reference: patent US20180148429A1 (SELVITA S.A., priority 2015, published 2018)
